Assay results reported in patent US4757012A, “Ascorbic acid intermediates and process enzymes” (Genentech, Inc., priority 1984, dated 1988).

Target: T1, 2,5-DKG reductase (Corynebacterium sp., UniProt P06632)
T1 construct: made in house; host or cells: Corynebacterium sp; ATCC 31090 (natural producer, native enzyme purified from cell paste, not recombinant)
Experiment: 2,5-DKG reductase kinetic / substrate specificity assay with purified enzyme
Format: biochemical, Corynebacterium sp. ATCC 31090
Settings: not given
Excerpt: The following assay conditions were used to determine kinetic parameters: […]

T1 sequence (P06632 whole entry): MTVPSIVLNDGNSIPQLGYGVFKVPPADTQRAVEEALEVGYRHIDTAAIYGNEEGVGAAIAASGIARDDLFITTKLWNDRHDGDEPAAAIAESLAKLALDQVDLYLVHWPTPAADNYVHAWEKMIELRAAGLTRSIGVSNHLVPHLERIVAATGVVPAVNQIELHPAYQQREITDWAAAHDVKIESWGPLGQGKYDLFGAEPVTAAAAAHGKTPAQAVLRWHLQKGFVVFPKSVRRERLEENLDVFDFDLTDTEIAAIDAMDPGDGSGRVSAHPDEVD

| Structure (SMILES) | Alteration of enzyme activity in the presence of the substance |
| --- | --- |
| Nc1ncnc2c1ncn2[C@@H]1O[C@H](COP(=O)(O)OP(=O)(O)O)[C@@H](O)[C@H]1O [ADP] | No alteration of activity |
| Nc1ncnc2c1ncn2[C@@H]1O[C@H](COP(=O)(O)OP(=O)(O)OP(=O)(O)O)[C@@H](O)[C@H]1O [ATP] | No alteration of activity |
| [Ca+2] [Ca^++] | No alteration of activity |
| O=C(O)CN(CCN(CC(=O)O)CC(=O)O)CC(=O)O [EDTA] | No alteration of activity |
| [Mn+2] [MN^++] | No alteration of activity |
| [Mg+2] [Mg^++] | No alteration of activity |
| [Zn+2] [Zn^++] | No alteration of activity |
| N[C@@H](CS)C(=O)O [cysteine] | No alteration of activity |

Same assay, conditions: substrate specificity and cofactor requirements

| Structure (SMILES) | Activity of the enzyme with the substance as substrate or cofactor |
| --- | --- |
| O=C(O)C(=O)[C@@H](O)[C@H](O)[C@H](O)CO [2-KDG, 2-keto-D-gluconic acid] | No activity |
| O=C(O)C(=O)[C@@H](O)[C@H](O)[C@@H](O)CO [2-KLG, 2-keto-L-gulonic acid] | No activity |
| O=C(CO)[C@@H](O)[C@H](O)[C@@H](O)C(=O)O [5-KDG, 5-keto-D-gluconic acid] | No activity |
| O=C(O)[C@H](O)[C@@H](O)[C@H](O)[C@H](O)CO [D-gluconic acid] | No activity |
| NC(=O)C1=CN([C@@H]2O[C@H](COP(=O)(O)OP(=O)(O)OC[C@H]3O[C@@H](n4cnc5c(N)ncnc54)[C@H](O)[C@@H]3O)[C@@H](O)[C@H]2O)C=CC1 [NADH] | No activity |
